From ChEMBL document CHEMBL1127448, “Synthesis, ligand binding, and QSAR (CoMFA and classical) study of 3 beta-(3'-substituted phenyl)-, 3 beta-(4'-substituted phenyl)-, and 3 beta-(3',4'-disubstituted phenyl)tropane-2 beta-carboxylic acid methyl esters” (J Med Chem, 1994) come the findings set out here.

pIC50: −log10 of the molar value.

The experiment deals with Sodium-dependent dopamine transporter (Rattus norvegicus, UniProt P23977). The experiment can be described thus: Concentration required to inhibit 50% of radioligand binding ([3H]WIN-35428) to the dopamine (DA) transporter in rat.
Sequence of Sodium-dependent dopamine transporter (P23977 whole entry): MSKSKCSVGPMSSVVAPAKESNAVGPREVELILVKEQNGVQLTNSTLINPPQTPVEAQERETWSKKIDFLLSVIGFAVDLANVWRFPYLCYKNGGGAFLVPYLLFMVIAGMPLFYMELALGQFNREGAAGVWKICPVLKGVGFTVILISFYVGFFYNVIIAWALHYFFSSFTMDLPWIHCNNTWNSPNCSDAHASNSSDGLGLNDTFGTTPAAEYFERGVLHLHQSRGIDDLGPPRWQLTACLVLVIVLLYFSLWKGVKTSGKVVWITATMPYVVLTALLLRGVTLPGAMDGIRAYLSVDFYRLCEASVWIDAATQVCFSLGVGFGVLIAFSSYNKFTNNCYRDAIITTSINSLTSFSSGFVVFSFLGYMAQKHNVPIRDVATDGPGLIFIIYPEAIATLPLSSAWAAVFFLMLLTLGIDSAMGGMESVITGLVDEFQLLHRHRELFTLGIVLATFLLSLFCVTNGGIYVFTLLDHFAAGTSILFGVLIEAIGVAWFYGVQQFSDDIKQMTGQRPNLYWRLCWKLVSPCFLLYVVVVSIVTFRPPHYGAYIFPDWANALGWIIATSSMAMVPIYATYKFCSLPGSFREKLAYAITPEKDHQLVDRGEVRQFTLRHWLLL
For `CCC(=O)Nc1ccc([C@H]2C[C@H]3CCC([C@H]2C(=O)OC)N3C)cc1`, the negative logarithm of the IC50 (pIC50) (usually the IC50 on a negative log10 scale, so that one unit is a factor of ten) was 6.92.

Consider `COC(=O)C1C2CC[C@H](C[C@H]1c1ccc(Br)cc1)N2C` (some centres not stated), for which the pIC50 is 8.77.

The compound `COC(=O)C1C2CC[C@@H](C[C@@H]1c1ccc([N+](=O)[O-])cc1)N2C` (some centres not stated) showed a negative-log IC50 (pIC50) of 7.88. Against the preceding compound, the pIC50 is 0.89 log units lower.

`COC(=O)C1C2CC[C@H](C[C@H]1c1ccc(Cl)c(Cl)c1)N2C` (some centres not stated) gave a pIC50 of 9.10. Against the preceding compound, the pIC50 is 1.22 log units higher.

Compound `COC(=O)C1C2CC[C@H](C[C@@H]1c1cccc(I)c1)N2C` (some centres not stated) had a pIC50 of 7.58.

The compound `COC(=O)C1C2CC[C@H](C[C@@H]1c1cccc(Cl)c1)N2C` (some centres not stated) gave a pIC50 of 8.20.

Take `COC(=O)C1C2CC[C@H](C[C@@H]1c1cccc(F)c1)N2C` (some centres not stated): the negative-log IC50 (pIC50) was 7.79.

In turn, `COC(=O)C1C2CC[C@H](C[C@@H]1c1ccc(N)c(Br)c1)N2C` (some centres not stated) gave a negative-log IC50 (pIC50) of 8.41.

`COC(=O)C1C2CC[C@H](C[C@@H]1c1ccc(N)c(I)c1)N2C` (some centres not stated) showed a pIC50 of 8.87.

As for `COC(=O)C1C2CC[C@H](C[C@@H]1c1ccc(O)cc1)N2C` (some centres not stated), the pIC50 was 7.92.

The compound `COC(=O)[C@@H]1C2CC[C@H](C[C@@H]1c1ccc(N)cc1)N2C` gave a pIC50 of 8.01.

For the compound `COC(=O)C1C2CC[C@H](C[C@@H]1c1ccc(F)c(C)c1)N2C` (stereo in doubt; 2x), the negative-log IC50 (pIC50) is 8.53.
